For the assay, the system named is formalin induced pain responses. Nature of the assay: Formalin Test (formalin induced pain responses, flinches and licks). To be noted: late phase 20 to 30 min after formalin. In kind it is in vivo, rat. Here is the method: Evaluation of analgesic and anti-inflammatory effects of compositions of claim 1 (See Hunskaar S and Hole K. (1987) Pain 30(1):103-14.)
In the Formalin Test a 5% solution of formaldehyde is injected subcutaneously to rat paw which produces a biphasic pain response over a test period of 60 minutes: an early phase lasting the first 5 min and a late phase lasting from 20 to 30 min after the injection of formalin. The early phase is due to a direct effect of […] on nociceptors and the late phase seems to be an inflammatory response with inflammatory pain that can be inhibited by anti-inflammatory drugs. For determining effects of compositions on these response phases two measurements were taken with three minutes interval for determining the number of flinches and licks per minute.
The treatments administered consists of (Human equivalent dose)
The above ingredients were suspended in 2.5 ml saline solution to feed by gavage one hour before injection of formalin and pain response was measured for 45 minutes. The data were collected in duplicate and average was taken.

As for `CC(=O)Oc1ccccc1C(=O)O` [Aspirin], the “percent inhibition in formalin induced pain responses” value (from here on “percent inhibition”) (human equivalent dose 100 mg) is listed as 30%.

With `CC(=O)Nc1ccc(O)cc1` [Paracetamol], the “percent inhibition” value by setting is: (human equivalent dose 500 mg) 50%; (human equivalent dose 1000 mg) 70%.

Regarding `O[C@H]1[C@H](O)[C@@H](O)[C@H](O)[C@@H](O)[C@H]1O` [Inositol], the “percent inhibition” value is listed as 12% (human equivalent dose 31.5 mg); 30% (human equivalent dose 60.2 mg); 34% (human equivalent dose 125 mg); 40% (human equivalent dose 250 mg); 85% (human equivalent dose 500 mg).

For the compound `C=C(C)[C@@H]1CCC(C)=C[C@H]1c1c(O)cc(CCCCC)cc1O` [Cannabidiol (CBD), Cannabidiol], the “percent inhibition” value is, setting by setting: (human equivalent dose 3 mg) 8%; (human equivalent dose 6.25 mg) 40%; (human equivalent dose 12.5 mg) 40%; (human equivalent dose 25 mg) 90%; (human equivalent dose 50 mg) 90%.

The values above are taken from US20210251934A1, “NOVEL COMPOSITIONS FOR THE TREATMENT OF INFLAMMATORY DISEASES” (SystaMedic Inc., priority 2018, published 2021).
